Measurements from ChEMBL document CHEMBL1201862, “PubChem BioAssay data set” (2004).
Active and inactive are the calls of the source. Unless noted, the rule behind the calls is not given here.

Experiments:
[1] = biological target: Mitogen-activated protein kinase 10 (Homo sapiens, UniProt P53779); assay: Dose response biochemical screening assay for inhibitors of c-Jun N-Terminal Kinase 3 (JNK3). [Related pubchem assays: 746 ]
[2] = biological target: T1, Cyclin-dependent kinase 5/CDK5 activator 1 (Homo sapiens, UniProt Q00535); assay: CDK5/p35 kinase inhibitors, dose response, biochemical, cherry-picked samples, set 2 (AID 504545)
[3] = biological target: Glycogen synthase kinase-3 alpha (Homo sapiens, UniProt P49840); assay: Inhibition of Human GSK-3 alpha Activity Measured in Biochemical System Using Microfluidics - 2063-06_Inhibitor_Dose_DryPowder_Activity_Set2. [Related pubchem assays (depositor defined):AID2709]
[4] = biological target: Glycogen synthase kinase-3 beta (Homo sapiens, UniProt P49841); assay: Inhibition of Human GSK-3 beta Activity Measured in Biochemical System Using Microfluidics - 2063-05_Inhibitor_Dose_DryPowder_Activity_Set2. [Related pubchem assays (depositor defined):AID2709]
[5] = biological target: T1, Cyclin-dependent kinase 5/CDK5 activator 1; assay: CDK5-p25 kinase inhibitors, specificity check, dose response, selectivity assay for GSK-3 alpha inhibitor project, biochemical, microfluidic mobility shift, dry powder (AID 588430)
[6] = biological target: Photoreceptor-specific nuclear receptor (Homo sapiens, UniProt Q9Y5X4); assay type: functional, cell-based;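 also: CHO-S cells with Gal4-NCOR and VP16-NR2E3 two-hybrid luciferase reporter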
[7] = biological target: DNA dC->dU-editing enzyme APOBEC-3A (Homo sapiens, UniProt P31941); assay: APOBEC3A DNA deaminase inhibitors, dose response, biochemical (AID 504722); assay type: functional
[8] = biological target: DNA dC->dU-editing enzyme APOBEC-3G (Homo sapiens, UniProt Q9HC16); assay: Dose Response confirmation of small molecule APOBEC3G DNA Deaminase Inhibitors via a fluorescence-based single-stranded DNA deaminase assay. [Related pubchem assays (depositor defined):AID493012, AID493028]; assay type: functional
Apelin receptor = Apelin receptor (Homo sapiens, UniProt P35414); assay: APJ beta-arrestin recruitment antagonism, SAR follow-up, selectivity assay for CCR6 antagonist project, cell-based, luminescent, enzyme-fragment complementation (AID 588359); assay type: functional
[9] = biological target: C-X-C chemokine receptor type 5 (Homo sapiens, UniProt P32302); assay: CXCR5 receptor antagonists, SAR follow-up, selectivity assay for CCR6 antagonist project, cell-based, beta-arrestin, luminescence, CHO-K1 PathHunter (AID 540340); assay type: functional
[10] = biological target: C-C chemokine receptor type 6 (Homo sapiens, UniProt P51684); assay: CCR6 receptor antagonists, SAR follow-up, cell-based, luminescent beta-arrestin readout (AID 540334); assay type: functional
C-C chemokine receptor type 6, sequence (P51684 whole entry): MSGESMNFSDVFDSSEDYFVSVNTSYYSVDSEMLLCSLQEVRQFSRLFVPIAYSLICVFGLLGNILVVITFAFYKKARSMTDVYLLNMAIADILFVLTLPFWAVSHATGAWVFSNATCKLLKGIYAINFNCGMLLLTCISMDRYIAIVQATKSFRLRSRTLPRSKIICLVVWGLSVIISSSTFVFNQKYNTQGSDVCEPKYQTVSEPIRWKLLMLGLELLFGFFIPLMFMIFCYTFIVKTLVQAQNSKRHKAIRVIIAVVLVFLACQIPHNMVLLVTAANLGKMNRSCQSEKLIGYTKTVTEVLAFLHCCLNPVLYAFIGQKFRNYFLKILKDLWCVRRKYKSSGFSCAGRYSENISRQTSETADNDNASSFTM

T1 sequence (Q00535 whole entry): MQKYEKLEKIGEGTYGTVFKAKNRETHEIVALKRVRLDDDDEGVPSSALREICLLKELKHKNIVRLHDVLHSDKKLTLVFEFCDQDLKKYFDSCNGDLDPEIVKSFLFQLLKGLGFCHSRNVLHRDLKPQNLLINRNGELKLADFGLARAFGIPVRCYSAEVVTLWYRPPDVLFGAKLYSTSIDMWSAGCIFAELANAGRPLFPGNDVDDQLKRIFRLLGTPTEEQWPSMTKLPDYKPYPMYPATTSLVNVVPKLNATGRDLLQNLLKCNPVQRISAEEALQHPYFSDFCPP
T1 sequence (Q15078 whole entry, further chain): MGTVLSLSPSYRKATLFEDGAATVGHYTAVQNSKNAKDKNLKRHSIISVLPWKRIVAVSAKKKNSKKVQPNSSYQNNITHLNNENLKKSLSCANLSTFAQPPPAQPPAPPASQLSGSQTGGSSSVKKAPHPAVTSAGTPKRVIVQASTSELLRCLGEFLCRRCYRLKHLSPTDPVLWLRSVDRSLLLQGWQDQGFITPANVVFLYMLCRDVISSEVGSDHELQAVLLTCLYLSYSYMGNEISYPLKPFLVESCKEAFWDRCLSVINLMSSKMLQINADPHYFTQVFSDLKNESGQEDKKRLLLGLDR
Mitogen-activated protein kinase 10, sequence (P53779 whole entry): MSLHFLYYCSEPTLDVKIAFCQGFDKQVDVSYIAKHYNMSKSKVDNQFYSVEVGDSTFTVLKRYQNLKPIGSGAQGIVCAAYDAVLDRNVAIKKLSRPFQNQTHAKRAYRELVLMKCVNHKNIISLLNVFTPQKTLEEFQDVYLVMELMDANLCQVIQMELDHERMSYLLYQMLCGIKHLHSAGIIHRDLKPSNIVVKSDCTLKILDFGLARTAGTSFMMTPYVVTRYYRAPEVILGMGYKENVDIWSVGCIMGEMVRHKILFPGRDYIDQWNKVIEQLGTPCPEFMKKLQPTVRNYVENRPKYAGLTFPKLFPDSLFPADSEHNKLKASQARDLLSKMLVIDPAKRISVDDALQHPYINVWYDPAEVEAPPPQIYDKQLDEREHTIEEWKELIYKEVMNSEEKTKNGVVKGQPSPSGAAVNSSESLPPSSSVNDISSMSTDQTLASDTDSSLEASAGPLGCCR
Apelin receptor, sequence (P35414 whole entry, the tested form may be a part): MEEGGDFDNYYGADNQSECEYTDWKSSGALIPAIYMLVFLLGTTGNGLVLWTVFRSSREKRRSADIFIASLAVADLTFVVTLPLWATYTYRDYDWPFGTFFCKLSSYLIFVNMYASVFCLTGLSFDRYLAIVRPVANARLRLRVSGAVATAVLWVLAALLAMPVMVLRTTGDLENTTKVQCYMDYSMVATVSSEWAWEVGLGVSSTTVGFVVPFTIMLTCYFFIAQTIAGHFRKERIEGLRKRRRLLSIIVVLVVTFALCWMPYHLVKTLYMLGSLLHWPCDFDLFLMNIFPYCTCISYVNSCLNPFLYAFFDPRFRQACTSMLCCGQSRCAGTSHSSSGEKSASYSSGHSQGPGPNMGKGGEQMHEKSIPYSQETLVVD
Photoreceptor-specific nuclear receptor, sequence (Q9Y5X4 whole entry, the tested form may be a part): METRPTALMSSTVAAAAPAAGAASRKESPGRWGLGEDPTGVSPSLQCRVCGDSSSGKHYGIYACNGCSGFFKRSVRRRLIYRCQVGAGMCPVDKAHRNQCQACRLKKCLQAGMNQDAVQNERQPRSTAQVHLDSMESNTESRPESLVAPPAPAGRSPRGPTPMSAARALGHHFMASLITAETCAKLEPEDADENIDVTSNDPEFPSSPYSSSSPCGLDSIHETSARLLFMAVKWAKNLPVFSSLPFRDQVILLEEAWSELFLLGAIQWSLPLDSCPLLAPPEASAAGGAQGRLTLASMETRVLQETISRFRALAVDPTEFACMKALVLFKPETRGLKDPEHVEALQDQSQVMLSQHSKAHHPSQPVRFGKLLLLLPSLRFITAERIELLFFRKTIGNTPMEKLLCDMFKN
DNA dC->dU-editing enzyme APOBEC-3A, sequence (P31941 whole entry): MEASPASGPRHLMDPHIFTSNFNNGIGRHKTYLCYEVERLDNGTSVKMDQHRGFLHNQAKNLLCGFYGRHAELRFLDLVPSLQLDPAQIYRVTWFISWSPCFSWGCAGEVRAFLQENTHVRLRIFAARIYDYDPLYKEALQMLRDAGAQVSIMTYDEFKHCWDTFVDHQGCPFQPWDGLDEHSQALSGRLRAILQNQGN
Glycogen synthase kinase-3 alpha, sequence (P49840 whole entry): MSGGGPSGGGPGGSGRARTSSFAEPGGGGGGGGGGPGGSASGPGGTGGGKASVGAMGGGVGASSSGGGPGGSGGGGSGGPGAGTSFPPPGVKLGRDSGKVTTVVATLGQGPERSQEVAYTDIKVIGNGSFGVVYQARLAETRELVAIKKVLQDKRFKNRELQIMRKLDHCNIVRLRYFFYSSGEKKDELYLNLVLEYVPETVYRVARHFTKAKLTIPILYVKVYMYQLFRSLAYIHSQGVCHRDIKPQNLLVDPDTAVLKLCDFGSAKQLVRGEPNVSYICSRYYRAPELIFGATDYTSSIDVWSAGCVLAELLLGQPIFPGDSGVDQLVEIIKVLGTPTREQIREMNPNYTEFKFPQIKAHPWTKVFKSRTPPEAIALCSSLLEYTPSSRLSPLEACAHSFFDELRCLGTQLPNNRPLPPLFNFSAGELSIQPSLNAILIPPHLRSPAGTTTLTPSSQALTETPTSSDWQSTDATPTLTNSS
C-X-C chemokine receptor type 5, sequence (P32302 whole entry): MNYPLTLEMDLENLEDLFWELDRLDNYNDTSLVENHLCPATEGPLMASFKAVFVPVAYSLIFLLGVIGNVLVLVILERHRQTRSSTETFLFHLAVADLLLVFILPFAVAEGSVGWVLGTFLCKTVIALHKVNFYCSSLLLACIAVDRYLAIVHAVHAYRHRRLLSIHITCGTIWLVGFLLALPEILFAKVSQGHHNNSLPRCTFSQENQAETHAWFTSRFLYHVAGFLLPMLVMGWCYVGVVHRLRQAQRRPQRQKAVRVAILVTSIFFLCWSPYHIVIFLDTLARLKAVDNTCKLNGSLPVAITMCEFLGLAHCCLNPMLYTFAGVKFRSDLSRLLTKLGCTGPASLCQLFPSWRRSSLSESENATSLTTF
Glycogen synthase kinase-3 beta, sequence (P49841 whole entry): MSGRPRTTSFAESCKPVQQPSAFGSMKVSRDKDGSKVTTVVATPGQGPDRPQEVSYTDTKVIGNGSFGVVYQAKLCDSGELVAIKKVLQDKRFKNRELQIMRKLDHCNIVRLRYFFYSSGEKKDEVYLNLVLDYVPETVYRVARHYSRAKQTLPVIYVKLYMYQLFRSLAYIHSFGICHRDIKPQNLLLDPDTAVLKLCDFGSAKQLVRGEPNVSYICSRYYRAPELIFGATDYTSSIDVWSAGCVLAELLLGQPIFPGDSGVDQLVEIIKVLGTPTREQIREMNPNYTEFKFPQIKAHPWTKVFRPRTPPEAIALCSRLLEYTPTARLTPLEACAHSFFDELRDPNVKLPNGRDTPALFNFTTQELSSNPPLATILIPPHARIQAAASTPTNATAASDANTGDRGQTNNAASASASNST
DNA dC->dU-editing enzyme APOBEC-3G, sequence (Q9HC16 whole entry, the tested form may be a part): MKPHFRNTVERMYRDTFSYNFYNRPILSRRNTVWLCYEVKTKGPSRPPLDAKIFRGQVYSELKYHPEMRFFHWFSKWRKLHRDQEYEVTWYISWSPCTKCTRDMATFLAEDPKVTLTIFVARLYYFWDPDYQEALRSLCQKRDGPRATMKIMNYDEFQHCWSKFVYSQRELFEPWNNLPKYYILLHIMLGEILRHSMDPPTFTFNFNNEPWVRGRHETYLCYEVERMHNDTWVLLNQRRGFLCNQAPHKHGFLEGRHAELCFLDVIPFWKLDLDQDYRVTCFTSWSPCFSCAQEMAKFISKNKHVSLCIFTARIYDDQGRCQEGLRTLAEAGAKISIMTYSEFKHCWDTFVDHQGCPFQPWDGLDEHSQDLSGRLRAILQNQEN

SMILES | IC50 [1] | AC50 [2] | AC50 [3] | AC50 [4] | AC50 [5] | IC50 [6] | IC50 [7] | IC50 [8] | IC50 (Apelin receptor) | IC50 [9] | IC50 [10]
COc1cccc(C(=O)c2sc(NC(C)C)nc2N)c1 | > 31 µM (not active) | 7.12 µM (active) | 288 nM (active) | 252 nM (active) | 1.11 µM (active) | 18.2 nM (active) | – | – | – | – | –
O=C1C2C3C=CC(CO)(O3)C2C(=O)N1c1ccccc1-c1ccccc1 (stereo unspecified) | – | – | – | – | – | – | > 100 µM (inactive) | 11.4 µM (active) | > 66.6 µM (inactive) | 52.7 µM (inactive) | > 66.6 µM (inactive)
